Each structure is given as a SMILES string.

Assay [1] concerns the target peptide fragment of TAR DNA-binding protein 43 (TDP-43) (Homo sapiens, UniProt Q13148). The assay can be described thus: Ion-mobility mass spectrometry (IM-MS) of TDP-43 peptide oligomerization. In kind it is biochemical. Particulars: approximately 4 hours after addition of compound to aggregated peptide sample; for 6mer/hexamer peak of TDP-43 peptide (IM-MS, FIG. 2): versus control. The text has this: One of the assays used to determine the effectiveness of the compounds is Ion Mobility Mass Spectroscopy, or IM-MS. In this assay, a protein solution was fed into the IM-MS tube. At the entrance to the tube, an electric field ionized the proteins, propelling them into the body of the tube, where a constant electric field propelled them forward. Upon reaching the end of the tube, the ionized proteins were counted by a particle detector, which can also measure the mass/charge ratio and flight time of each particle.
Methods: IM-MS was utilized to monitor the oligomerization of a peptide fragment of TAR DNA-binding protein 43 (TDP-43) in the presence of compounds 1 and 2 using methods as described in Laos et al ACS Chem. Neuro. 2019, 10 (9), 4112-4123; and Biochemistry 2019, 59 (4), 499-508. The accumulation of TDP-43 aggregates in the central nervous system is a common feature of many neurodegenerative diseases, such as amyotrophic lateral sclerosis, frontotemporal dementia, Alzheimer's disease, and limbic predominant age-related TDP-43 encephalopathy. The ability of IM-MS to separate TDP-43 aggregate species of a specific [m]z+ (m=mass, z=charge) that contains different [n]z+ (n=number of TDP-43 peptide molecules aggregated together) by measuring the arrival time distributions (ATDs) yields oligomeric distribution spectrographs.
In FIG. 2, the number denoted at the top of each peak is the peptide aggregate size (e.g., 6=6 peptides aggregated together). The spectrograph designated as Control is the peptide form of TDP-43 without any protein aggregation disrupting compound added. Measurements were taken approximately 4 hours after addition of compound to aggregated peptide sample. […] The 6mer is the toxic oligomer that propagates disease and neuronal degeneration. FIG. 2 also discloses that the addition of compound 1 or compound 2 decreased the number of higher-order TDP-43 oligomers and increased the number of TDP-43 monomers and dimers.
We conducted two types of experiments. The first was a co-incubation experiment, where we added the compounds to a fresh solution of monomeric protein, and allowed the protein to aggregate (or, ideally, not aggregate) in the presence of the compound. The second experiment was a recovery experiment, where we added our compounds to a solution of pre-aggregated protein. Co-incubation experiments allowed us to determine if the compounds can prevent initial aggregation, while recovery experiments allowed us to determine if the compounds can break up existing aggregates.

The target in assay [2] is T1, TDP-43 cytosolic aggregates (TDP-43-tGFP-U2OS cell line) (Homo sapiens, UniProt Q13148).
T1 construct: expressed in transfected cells; host or cells: U2OS (recombinant, IPTG-inducible TDP-43 expression)
Nature of the assay: TDP-43 cytoplasmic aggregation assay. In kind it is cell-based. The following applies: 10 μM compound; TDP-43-tGFP-U2OS cells, sodium arsenite; lower = more potent. The method, then:
Recombinant TDP-43-tGFP-U2OS cell line was thawed (2×10^6 cells per T75) and was maintained in DMEM-F12 supplemented with 10% FBS at 37° C. in a humidified 5% CO2 atmosphere. Cells were plated in 96-well plates with a density of 10,000 cells (+/−2000 cells) per well. Cells were incubated with the test compounds and isopropyl β-D-1-thiogalactopyranoside (IPTG) 1 mM to induce TDP43 expression for 24 hours. The assays were carried out in triplicate. Cells were treated with 125-250 μM of sodium arsenite for 120 min and TDP-43 punctae formation was quantified in both cell cytoplasm and cell nucleus, in living cells. The nuclei were stained using Hoechst (0.5 μg/ml) and the fluorescence was measured using a Cell Insight High-Content Bioimager from Thermo Fisher. To detect the Hoechst, the filters used were 380/10 and 460/10 nm for excitation and emission, respectively, and to detect the TDP-43 punctae, the filters were 488/20 and 520/20 nm, respectively. The images were obtained with an objective of 20×. Cell quantification was performed delimitating the region of interest of the nuclei and after quantification the average of each triplicate was performed. For granule quantification the spot detector application from Cell Software delimitated 2 regions of interest, the nuclei and cytosol. This software quantified the average number of granules per nuclei and the average number of granules per cytosol in each well.

Assay [3] deals with toxic alpha-synuclein oligomers (Homo sapiens, UniProt P37840). The assay can be described thus: Neuronal cell toxicity assay (MTT), alpha-synuclein oligomers. In kind it is cell-based. The following applies: 10 μM compound; primary rat neurons; 100% = cells without alpha-synuclein oligomers, 0% = oligomers and DMSO. The method, then: (§1) Primary rat cortical and striatal neurons were prepared from foetuses' brain as previously described (Garcia et al., Diabetes, Obesity & Metabolism 2010, 12, 403-413; Roby et al., Food chemistry 2015, 171, 397-404; Colin et al., Biochimie 2016, 130, 178-187). Briefly, the embryos were extracted, brains were collected and dissected using a binocular magnifier. Embryonic cortical/striatal tissues were dissociated by a combination of enzymatic digestion and mechanical dissociation. The relative number of live cells in cell suspension was evaluated for each cortical and striatal neurons using Thoma cell counting chamber and Axio Scope A1 microscope (Carl Zeiss, Oberkochen, Germany). Dissociated neurons were plated (80,000 cells/well) in 48-well plates pre-coated with 15 μg/mL Poly-ornithine (Sigma), 1 μg/ml Laminin (Sigma). Cells were cultured in Neurobasal medium (Invitrogen, Paris, France) serum free of and supplemented with 2% (v/v) of B-27 Supplement (Invitrogen). […]
(§2) To induce neuronal toxicity, neurotoxin (oligomeric forms of Aβ, Tau and alpha-synuclein at 0.1-5 μM) were used. […] Cell viability was evaluated by a 3-(4,5-dimethylthiazol-2-yl)-2,5-diphenyl-2H-tetrazolium bromide (MTT) assay at 24-72 h post neurotoxin challenge. […] After complete solubilization of formazan, absorbance was recorded at 500 nm with a spectrophotometer (SpectraMax® i3x, Molecular Devices, San José, USA).

The test system of a further assay is toxic tau oligomers. Nature of the assay: Neuronal cell toxicity assay (MTT), tau oligomers. The assay is classed as cell-based. Particulars: primary rat neurons, 100% = cells without tau oligomers, 0% = tau oligomers and DMSO. As for the experimental part:
as §1, §2

T1 sequence (Q13148 whole entry): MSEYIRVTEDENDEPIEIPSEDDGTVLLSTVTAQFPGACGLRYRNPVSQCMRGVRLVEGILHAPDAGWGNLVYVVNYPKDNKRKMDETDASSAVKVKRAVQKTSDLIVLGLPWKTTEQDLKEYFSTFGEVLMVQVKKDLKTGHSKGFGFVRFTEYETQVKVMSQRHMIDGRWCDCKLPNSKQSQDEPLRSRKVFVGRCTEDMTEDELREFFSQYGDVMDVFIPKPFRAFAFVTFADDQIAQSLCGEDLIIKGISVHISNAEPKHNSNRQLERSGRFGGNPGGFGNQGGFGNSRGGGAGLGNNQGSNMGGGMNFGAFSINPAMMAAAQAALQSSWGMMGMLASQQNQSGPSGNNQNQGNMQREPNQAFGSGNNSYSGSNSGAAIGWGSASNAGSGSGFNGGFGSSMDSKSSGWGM

Take `CC(=O)Nc1ccc2c(c1)CCN(CCc1cccc(Cl)c1)C2` [Compound 1]: in assay [1], the “number of TDP-43 monomers and dimers (IM-MS, FIG. 2)” value is given as “increased”; the “number of higher-order TDP-43 oligomers (IM-MS, FIG. 2)” value is recorded as “decreased”; the “6mer/hexamer peak of TDP-43 peptide (IM-MS, FIG. 2)” value is “depleted”. The “TDP-43 % cytosolic aggregates at 10 μM” value in assay [2] came to 34.5%. Further, the “% rescue at 10 μM comopund from toxic alpha-synuclein oligomers” value in assay [3] was determined as 24%.
On to `CC(=O)Nc1ccc2c(c1)CCN(CCc1ccc(F)c(Cl)c1)C2` [Compound 2], for which, in assay [1], the “number of TDP-43 monomers and dimers (IM-MS, FIG. 2)” value is on record as “increased”; the “number of higher-order TDP-43 oligomers (IM-MS, FIG. 2)” value is “decreased”; the “6mer/hexamer peak of TDP-43 peptide (IM-MS, FIG. 2)” value was “depleted”. The “% rescue at 10 μM compound from toxic tau oligomers” value in the assay on toxic tau oligomers came to 33.7%. Moreover, in assay [2], the “TDP-43 % cytosolic aggregates at 10 μM” value was found to be 10.2%.

The values are drawn from patent US20260242340A1, “COMPOUNDS AND METHODS FOR TREATING PROTEIN AGGREGATION DISEASES” (ACELOT, INC., priority 2023, published 2026).
